This assay has as its target T1, P2X2 (His-rP2x2-StrepII) (Rattus norvegicus, UniProt P49653).
T1 construct: gene P2rx2; His tag and StrepII tag; homotrimer
T1 sequence (P49653 1-472): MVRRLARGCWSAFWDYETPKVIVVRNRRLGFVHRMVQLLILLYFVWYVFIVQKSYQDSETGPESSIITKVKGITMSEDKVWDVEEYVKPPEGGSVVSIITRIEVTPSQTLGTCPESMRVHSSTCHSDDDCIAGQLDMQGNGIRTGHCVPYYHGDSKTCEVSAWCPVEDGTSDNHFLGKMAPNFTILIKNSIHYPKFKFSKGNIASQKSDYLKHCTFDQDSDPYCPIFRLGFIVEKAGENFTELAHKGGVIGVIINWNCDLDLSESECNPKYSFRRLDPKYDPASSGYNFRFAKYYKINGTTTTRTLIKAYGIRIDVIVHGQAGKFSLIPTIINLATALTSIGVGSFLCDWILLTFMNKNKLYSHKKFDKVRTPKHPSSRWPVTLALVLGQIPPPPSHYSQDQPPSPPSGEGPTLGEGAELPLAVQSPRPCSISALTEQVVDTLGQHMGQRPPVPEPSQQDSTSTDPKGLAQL
As to the kind of experiment: whole-cell patch clamp, HEK293, multi-step microfluidic application. It is filed as cell-based.

`Nc1ncnc2c1ncn2[C@@H]1O[C@H](COP(=O)(O)OP(=O)(O)OP(=O)(O)O)[C@@H](O)[C@H]1O` [ATP] came in with an EC50 of 1500 ± 20 nM.

A word on the EC50: it is the concentration giving half of the maximal effect. A high value points to lower potency in that assay.

The values are drawn from PMC10545696, “Fast functional mapping of ligand-gated ion channels” (Communications Biology, 2023).
